Where two headings read alike, the source gives them in different places.
How the values were obtained:
[1] = test system: LPS-induced microglia activation; test: Image-based assay of LPS-induced microglia activation (HTS and dose response); assay type: cell-based, rat; conditions: for inhibition at 10 µM: Rattus norvegicus, Microglia, read-out: LPS % inhibition
primary rat microglia [2] = test: Cell toxicity (dead cells, size <150 μm2) in coated fibrin (cFib) assay; conditions: for IC50: read-out: Cell Toxicity IC50 (uM) [cFib assay];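 on Fibrin % cell toxicity: share of dead cells sized under 150 µm2 at 10 µM in fibrin-stimulated microglia HTS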
[3] = test system: fibrin- and LPS-induced microglia activation; test: cells; assay type: cell-based, rat; conditions: for Hit: HTS hit classification
primary rat microglia [4] = test: Cell toxicity (dead cells, size <150 μm2) in LPS assay; conditions: for IC50: read-out: Cell Toxicity IC50 (uM) [LPS assay]
[5] = test system: fibrin-induced microglia activation; test: Image-based assay of fibrin-induced microglia activation (HTS and dose response); assay type: cell-based, rat; conditions: for inhibition at 10 µM: Rattus norvegicus, Microglia, read-out: Fibrin % inhibition
[6] = primary microglia HTS, LPS stimulation, increased cell size (>800 μm^2) as marker of activation
[7] = primary microglia HTS, fibrin stimulation, decreased size (<150 μm^2) as marker of toxicity
[8] = quadrant by fibrin and LPS inhibition in HTS of 1907 compounds
[9] = primary microglia HTS, LPS stimulation, decreased size (<150 μm^2) as marker of toxicity
[10] = primary microglia HTS, fibrin stimulation, increased cell size (>800 μm^2) as marker of activation
[11] = HTS of 1907 compounds, quadrant by fibrin and LPS inhibition
[12] = LPS-induced microglia activation, dose response, read-out: LPS IC50 (uM) (Suppl. Table 7)
[13] = Table 1, dose response 0.001-20 μM, triplicates, primary rat microglia, 48 h, read-out: LPS IC50
[14] = dose response, LPS-induced microglia activation, read-out: LPS IC50
[15] = hit classification in microglia HTS
[16] = Table 1, dose response 0.001-20 μM, triplicates, primary rat microglia, 48 h, read-out: Fibrin IC50
[17] = dose response, fibrin-induced microglia activation, read-out: Fibrin IC50
[18] = fibrin-induced microglia activation, dose response, read-out: Fibrin IC50 (uM) (Suppl. Table 7)

## C[N+](C)(C)CC(O)CC(=O)O.[Cl-] (stereo not drawn)
[1]; primary HTS, 10 μM, LPS-stimulated primary microglia
  LPS % inhibition: 1%
Primary rat microglia [2]; primary HTS, 10 μM, fibrin assay, dead cells size <150 μm2
  Fibrin % cell toxicity: 1%
[3]; primary HTS, 10 μM
  Quadrant (FIG. 5b): Q4
Primary rat microglia [4]; primary HTS, 10 μM, LPS assay, dead cells size <150 μm2
  LPS % cell toxicity: 0%
[5]; primary HTS, 10 μM, fibrin-stimulated primary microglia
  Fibrin % inhibition: −23%

## N=C(NCCCCCCNC(=N)NC(=N)Nc1ccc(Cl)cc1)NC(=N)Nc1ccc(Cl)cc1
[1]; [6]
  LPS % inhibition: 69%
Primary rat microglia [2]; [7]
  Fibrin % cell toxicity: 1%
[3]; [8]
  Quadrant (FIG. 5b): Q1
Primary rat microglia [4]; [9]
  LPS % cell toxicity: 8%
[5]; [10]
  Fibrin % inhibition: 15%

## CSc1ccc2c(c1)C(N1CCN(C)CC1)Cc1ccccc1S2 (stereo not drawn)
[1]; [6]
  LPS % inhibition: −5%
Primary rat microglia [2]; [7]
  Fibrin % cell toxicity: 1%
[3]; [8]
  Quadrant (FIG. 5b): Q4
Primary rat microglia [4]; [9]
  LPS % cell toxicity: 0%
[5]; [10]
  Fibrin % inhibition: 11%

## CCN(CC)CCNC(=O)c1ccc(NC(C)=O)cc1.Cl
[1]; [6]
  LPS % inhibition: 9%
Primary rat microglia [2]; [7]
  Fibrin % cell toxicity: 0%
[3]; [8]
  Quadrant (FIG. 5b): Q4
Primary rat microglia [4]; [9]
  LPS % cell toxicity: 1%
[5]; [10]
  Fibrin % inhibition: −11%

## C[n+]1cc2c3c(ccc2c2ccc4cc5c(cc4c21)OCO5)OCO3
[1]; [6]
  LPS % inhibition: 101%
Primary rat microglia [2]; [7]
  Fibrin % cell toxicity: 0%
[3]; [8]
  Quadrant (FIG. 5b): Q1
Primary rat microglia [4]; [9]
  LPS % cell toxicity: 55%
[5]; [10]
  Fibrin % inhibition: 24%

## Cc1scc2c1N(C(=O)CN1CCN(C)CC1)c1ccccc1NC2=O
[1]; primary microglia HTS, 10 μM, LPS-stimulated, cell size >800 μm^2 as marker of activation
  LPS % inhibition: 14%
Primary rat microglia [2]; primary microglia HTS, 10 μM, fibrin assay, cell size <150 μm^2 as marker of toxicity
  Fibrin % cell toxicity: 1%
[3]; [11]
  Quadrant (FIG. 5b): Q4
Primary rat microglia [4]; primary microglia HTS, 10 μM, LPS assay, cell size <150 μm^2 as marker of toxicity
  LPS % cell toxicity: 0%
[5]; primary microglia HTS, 10 μM, fibrin-stimulated, cell size >800 μm^2 as marker of activation
  Fibrin % inhibition: 3%

## OC[C@H]1O[C@@H](O[C@@H]2[C@@H](CO)OC(O)(CO)[C@H]2O)[C@H](O)[C@@H](O)[C@H]1O (mixture of isomers) [Lactulose]
[1]; 48 h, primary microglia HTS, LPS stimulation, activation = cell size >800 μm2
  inhibition at 10 µM: 4%
Primary rat microglia [2]; primary microglia HTS, fibrin stimulation, toxicity = cell size <150 μm2
  Fibrin % cell toxicity: 0%
[3]; [8]
  Quadrant (FIG. 5b): Q4
Primary rat microglia [4]; primary microglia HTS, LPS stimulation, toxicity = cell size <150 μm2
  LPS % cell toxicity: 0%
[5]; primary microglia HTS, fibrin stimulation, activation = cell size >800 μm2
  inhibition at 10 µM: -14%

## C#C[C@]1(OC(C)=O)CC[C@H]2[C@@H]3CCC4=CC(=NO)CC[C@@H]4[C@H]3CC[C@@]21CC (mixture of isomers) [Norgestimate]
[1]; 48 h, primary microglia HTS, LPS stimulation, increased cell size (>800 μm^2) as marker of activation
  inhibition at 10 µM: 12%
Primary rat microglia [2]; [7]
  Fibrin % cell toxicity: 0%
[3]; [8]
  Quadrant (FIG. 5b): Q4
Primary rat microglia [4]; [9]
  LPS % cell toxicity: 0%
[5]; [10]
  inhibition at 10 µM: -5%

## CCCCCCc1ccc(O)cc1O.Nc1c2ccccc2nc2ccccc12 [Acrisorcin, reference compound]
[1]; [12]
  IC50: 5 µM
[1]; [13]
  IC50: 5 µM
[1]; [14]
  IC50: 5 µM
[1]; [6]
  LPS % inhibition: 113%
Primary rat microglia [2]; [7]
  Fibrin % cell toxicity: 2%
[3]
  Hit: HIT (Hits were defined as molecules that exhibited greater than 50% inhibition of either fibrin or LPS activation)
[3]; [11]
  Quadrant (FIG. 5b): Q2
[3]; Table 1, screen at 10 μM
  Quadrant (FIG. 5b): Q2
[3]; [15]
  Cherry-picked Hit (Suppl. Table 7): HIT (Hits were defined as molecules that exhibited greater than 50% inhibition of either fibrin or LPS activation)
[3]; [8]
  Quadrant (FIG. 5b): Q2
Primary rat microglia [4]; [9]
  LPS % cell toxicity: 52%
Primary rat microglia [4]; LPS assay
  IC50: 6 µM
[5]; [16]
  IC50: 7 µM
[5]; [17]
  IC50: 7 µM
[5]; [18]
  IC50: 7 µM
[5]; [10]
  Fibrin % inhibition: 87%

## CCC(=O)OCC(=O)[C@@]1(OC(=O)CC)[C@H](C)C[C@H]2[C@H]3[C@H]([C@@H](O)C[C@@]21C)[C@@]1(C)C=CC(=O)C=C1C[C@H]3Cl [Alclometazone dipropionate, reference compound]
[1]; [12]
  IC50: 2 µM
[1]; [13]
  IC50: 2 µM
[1]; Table 3, read-out: LPS IC50 (uM) (Suppl. Table 7)
  IC50: 2 µM
[1]; Table 6, read-out: LPS IC50 (uM) (Suppl. Table 7)
  IC50: 2 µM
[1]; [14]
  IC50: 2 µM
[1]; [6]
  LPS % inhibition: 82%
Primary rat microglia [2]; [7]
  Fibrin % cell toxicity: 2%
Primary rat microglia [2]; Table 3
  IC50: > 20 µM
Primary rat microglia [2]; cFib assay
  IC50: > 20 µM
Primary rat microglia [2]; cFib assay, Table 6
  IC50: > 20 µM
[3]
  Hit: HIT (Hits were defined as molecules that exhibited greater than 50% inhibition of either fibrin or LPS activation)
[3]; [11]
  Quadrant (FIG. 5b): Q2
[3]; Table 1, screen at 10 μM
  Quadrant (FIG. 5b): Q2
[3]; Table 3
  Cherry-picked Hit (Suppl. Table 7): HIT (Hits were defined as molecules that exhibited greater than 50% inhibition of either fibrin or LPS activation)
[3]; Table 3, screen at 10 μM
  Quadrant (FIG. 5b): Q2
[3]; [15]
  Cherry-picked Hit (Suppl. Table 7): HIT (Hits were defined as molecules that exhibited greater than 50% inhibition of either fibrin or LPS activation)
[3]; microglia HTS, Table 6
  Cherry-picked Hit (Suppl. Table 7): HIT (Hits were defined as molecules that exhibited greater than 50% inhibition of either fibrin or LPS activation)
  Quadrant (FIG. 5b): Q2
[3]; [8]
  Quadrant (FIG. 5b): Q2
Primary rat microglia [4]; [9]
  LPS % cell toxicity: 2%
Primary rat microglia [4]; LPS assay
  IC50: > 20 µM
Primary rat microglia [4]; LPS assay, Table 6
  IC50: > 20 µM
Primary rat microglia [4]; Table 3
  IC50: > 20 µM
[5]
  Fibrin Selectivity (LOG10): 3.33
[5]; [16]
  IC50: < 0.001 µM
[5]; Table 3, read-out: Fibrin IC50 (uM) (Suppl. Table 7)
  IC50: < 0.001 µM
[5]; Table 6, read-out: Fibrin IC50 (uM) (Suppl. Table 7)
  IC50: < 0.001 µM
[5]; [17]
  IC50: < 0.001 µM
[5]; fibrin vs LPS, LOG10, Table 6
  Fibrin Selectivity (LOG10): 3.33
[5]; fibrin vs LPS, Table 6
  Fibrin Selectivity: 2153
[5]; [18]
  IC50: < 0.001 µM
[5]; listed as Alclometazone Dipropion
  Fibrin Selectivity: ≥ 2153
[5]; listed as Alclometazone Dipropionate
  Fibrin Selectivity: 2153
[5]; [10]
  Fibrin % inhibition: 105%

Source: patent US20210330611A1, “THERAPY FOR NEUROLOGICAL DISEASES/DISORDERS” (priority 2020, published 2021)
